IC50 data for 23 compounds are collected here from ChEMBL document CHEMBL1127876, “Potent imidazole angiotensinII antagonists: acyl sulfonamides and acyl sulfamides as tetrazole replacements” (Bioorg Med Chem Lett, 1994).

A value given as a limit tells only on which side of the number the result lay.

One may read the IC50 as the concentration that gives 50% inhibition.

Experiment [1] addresses T1, Type-2 angiotensin II receptor (Rattus norvegicus, UniProt P35351).
T1 sequence (P35351 whole entry): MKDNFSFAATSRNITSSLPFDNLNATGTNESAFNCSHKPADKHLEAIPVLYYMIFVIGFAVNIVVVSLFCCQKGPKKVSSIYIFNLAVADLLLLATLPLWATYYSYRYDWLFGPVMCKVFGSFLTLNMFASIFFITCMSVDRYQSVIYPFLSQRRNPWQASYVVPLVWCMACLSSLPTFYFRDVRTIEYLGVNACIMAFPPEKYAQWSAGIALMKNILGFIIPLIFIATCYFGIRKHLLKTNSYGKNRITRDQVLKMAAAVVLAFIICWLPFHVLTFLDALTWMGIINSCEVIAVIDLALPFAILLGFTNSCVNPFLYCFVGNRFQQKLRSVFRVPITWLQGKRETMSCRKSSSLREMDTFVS
Nature of the experiment: In vitro inhibitory activity against angiotensin II (AT2) receptor to displace 125I-Sar,Ile8-AII in rat midbrain.

Experiment [2] concerns the target T2, Type-1 angiotensin II receptor (Oryctolagus cuniculus, UniProt P34976).
T2 sequence (P34976 whole entry): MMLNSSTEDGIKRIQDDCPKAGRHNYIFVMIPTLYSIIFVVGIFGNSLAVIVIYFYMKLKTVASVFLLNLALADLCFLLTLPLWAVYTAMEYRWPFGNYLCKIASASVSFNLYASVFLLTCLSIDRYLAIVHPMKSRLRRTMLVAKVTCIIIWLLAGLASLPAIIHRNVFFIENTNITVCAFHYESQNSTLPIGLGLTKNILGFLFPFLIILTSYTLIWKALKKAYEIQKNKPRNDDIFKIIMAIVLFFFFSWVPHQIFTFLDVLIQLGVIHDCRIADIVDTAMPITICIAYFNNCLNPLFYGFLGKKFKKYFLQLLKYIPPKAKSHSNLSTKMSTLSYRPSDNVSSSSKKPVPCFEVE
Put plainly: In vitro inhibitory activity against Angiotensin II receptor, type 1 to displace 125I-Sar,Ile8-AII in rabbit aorta. The experiment is classed as tissue-based.

For the compound `CCCc1nc(CC)c(C(=O)O)n1Cc1ccc(-c2ccccc2-c2nnn[nH]2)cc1`, the values for the IC50 in experiment [1] and in experiment [2] were more than 1000 nM and 6 nM, respectively. Turning to `CCCc1nc(CC)c(C(=O)OC)n1Cc1ccc(-c2ccccc2S(=O)(=O)NC(=O)c2ccccc2)cc1`, the values for the IC50 in experiment [1] and in experiment [2] were 1000 nM and 0.5 nM, respectively. Taken in the same sequence, the figures for `CCCCc1ncc(C(=O)O)n1Cc1ccc(-c2ccccc2S(=O)(=O)NC(=O)c2ccccc2)cc1` were 4500 nM and 6.2 nM.

In the case of `CCCCc1ncc(C(=O)O)n1Cc1ccc(-c2ccccc2NS(=O)(=O)NC(=O)C2CC2)cc1`, the IC50 was more than 10000 nM in experiment [1] and 7.4 nM in experiment [2]. Taken in the same sequence, the figures for `CCCc1nc(CC)c(C(=O)OC)n1Cc1ccc(-c2ccccc2S(=O)(=O)NC(=O)C2CC2)cc1` were 2100 nM and 2.6 nM. Taken in the same sequence, the figures for `CCCCc1ncc(C(=O)OC)n1Cc1ccc(-c2ccccc2S(=O)(=O)NC(=O)c2ccccc2)cc1` were more than 1000 nM and 21 nM.

With `CCCc1nc(CC)c(C(=O)O)n1Cc1ccc(-c2ccccc2S(=O)(=O)NC(=O)C2CC2)cc1`, the half-inhibitory concentration (IC50) was more than 10000 nM in experiment [1] and 4.3 nM in experiment [2]. Taken in the same sequence, the figures for `CCCCc1nc(Cl)c(C(=O)OC)n1Cc1ccc(-c2ccccc2-c2nn[nH]n2)cc1` were more than 50000 nM and 13 nM. As for `CCCc1nc(CC)c(C(=O)O)n1Cc1ccc(-c2ccccc2S(=O)(=O)NC(=O)c2ccccc2)cc1`, the figures for the concentration for half-maximal inhibition (IC50) in experiment [1] and in experiment [2] were 7000 nM and 1.7 nM, respectively. Taken in the same sequence, the figures for `CCCCc1nc(Cl)c(C(=O)O)n1Cc1ccc(-c2ccccc2S(=O)(=O)NC(=O)c2ccccc2)cc1` were 9500 nM and 2 nM. Taken in the same sequence, the figures for `CCCc1nc(CC)c(C=O)n1Cc1ccc(-c2ccccc2-c2nnn[nH]2)cc1` were more than 30000 nM and 8 nM. Taken in the same sequence, the figures for `CCCCCCCC(=O)NS(=O)(=O)Nc1ccccc1-c1ccc(Cn2c(C(=O)OC)cnc2CCCC)cc1` were 500 nM and 1.9 nM. Consider `CCCCc1ncc(C(=O)OC)n1Cc1ccc(-c2ccccc2S(=O)(=O)NC(=O)C2CC2)cc1`, for which the half-maximal inhibitory concentration (IC50) in experiment [1] was 8000 nM; in experiment [2], 39 nM. Taken in the same sequence, the figures for `CCCCc1ncc(C(=O)O)n1Cc1ccc(-c2ccccc2-c2nn[nH]n2)cc1` were more than 50000 nM and 2.9 nM. Taken in the same sequence, the figures for `CCCCc1ncc(C(=O)OC)n1Cc1ccc(-c2ccccc2NS(=O)(=O)NC(=O)c2ccccc2)cc1` were 1800 nM and 20 nM.

For the compound `CCCCc1ncc(C(=O)O)n1Cc1ccc(-c2ccccc2S(=O)(=O)NC(=O)C2CC2)cc1`, the results for the half-inhibitory concentration (IC50) in experiment [1] and in experiment [2] were 5800 nM and 5.8 nM, respectively.

Regarding `CCCc1nc(CC)c(C=O)n1Cc1ccc(-c2ccccc2S(=O)(=O)NC(=O)C2CC2)cc1`, the IC50 in experiment [1] is 2000 nM; in experiment [2], 12 nM.

On to `CCCCCCCC(=O)NS(=O)(=O)Nc1ccccc1-c1ccc(Cn2c(C(=O)O)cnc2CCCC)cc1`, for which the half-inhibitory concentration (IC50) is 2300 nM in experiment [1] and 0.2 nM in experiment [2]. `CCCCc1nc(Cl)c(C(=O)OC)n1Cc1ccc(-c2ccccc2S(=O)(=O)NC(=O)c2ccccc2)cc1`: the values for the IC50 in experiment [1] and in experiment [2] were 5300 nM and 8.8 nM, respectively. Taken in the same sequence, the figures for `CCCCc1ncc(C(=O)OC)n1Cc1ccc(-c2ccccc2NS(=O)(=O)NC(=O)C2CC2)cc1` were 10000 nM and 32 nM. Taken in the same sequence, the figures for `CCCCc1ncc(C(=O)OC)n1Cc1ccc(-c2ccccc2-c2nn[nH]n2)cc1` were more than 50000 nM and 15 nM. Taken in the same sequence, the figures for `CCCCc1ncc(C(=O)O)n1Cc1ccc(-c2ccccc2NS(=O)(=O)NC(=O)c2ccccc2)cc1` were more than 10000 nM and 6 nM.

For `CCCc1nc(CC)c(C=O)n1Cc1ccc(-c2ccccc2S(=O)(=O)NC(=O)c2ccccc2)cc1`, the concentration for half-maximal inhibition (IC50) in experiment [2] came out at 2.4 nM.
